This passage reports EC50 and CC50 results from patent publication US11491148B2, “Amide derivatives useful in the treatment of HBV infection or HBV-induced diseases” (Janssen Sciences Ireland Unlimited Company, priority 2019, dated 2022).

Like-named read-outs stand apart in the source and are kept apart here.

Data set [1] concerns HBV. The data set is described as follows: Anti-HBV activity, intracellular HBV DNA by real-time PCR (HBV-AVE-HepG2.117). It counts as cell-based, Hepatitis B virus. The note with it: read-out: HBV-AVE-HepG2.117 EC50 (μM; mean value). The method, then: The anti HBV activity was measured using the HepG2.117 cell line, a stable, inducible HBV producing cell line, which replicates HBV in the absence of doxicycline (Tet-off system). The HepG2 cell line is available from ATCC®) under number HB-8065. Transfection of the HepG2 cell line can be as described in Sun and Nassal 2006 Journal of Hepatology 45 (2006) 636-645 “Stable HepG2- and Huh7-based human hepatoma cell lines for efficient regulated expression of infectious hepatitis B virus”.
For the antiviral assay, HBV replication was induced, followed by a treatment with serially diluted compound in 96-well plates. After 3 days of treatment, the antiviral activity was determined by quantification of intracellular HBV DNA using real-time PCR and an HBV specific primer set and probe.

Data set [2] deals with HepG2.117 cells. The data set is described as follows: Cytotoxicity, ATPlite cell viability (TOX-HepG2.117). It counts as cell-based, human. On the procedure:
(§1) Cytotoxicity of the compounds was tested using HepG2 or HepG2.117 cells, incubated for 3 days in the presence of compounds. The viability of the cells was assessed using the Perkin Elmer ATPlite Luminescence Assay System.”

Assay in data set [3]: as above
The note with it: human; HepG2.117 cells, incubated for 3 days, ATPlite, mean value. It counts as cell-based, human. The method, then:
as §1

Setting [4] is: HepG2.117 cell line, 3 days of treatment, intracellular HBV DNA, mean value.
The mark [5] stands for this setting: Hepatitis B virus, HepG2.117, 72 h, HepG2.117 cell line, 3 days of treatment, intracellular HBV DNA, mean value.

Take `C[C@H]1[C@H](C(=O)Nc2cc(F)c(F)c(F)c2)CCN1C(=O)C(=O)NC1(c2c[nH]nn2)CC(F)(F)C1` [C3′]: in data set [1] (setting [4]), the EC50 is more than 2.5 µM. In addition, the CC50 in data set [2] was more than 50000 nM.

With `C[C@H]1[C@H](C(=O)Nc2ccc(F)c(C#N)c2)CCN1C(=O)C(=O)NC1(c2c[nH]nn2)CC(F)(F)C1` [C6′], the EC50 in data set [1] (setting [4]) was determined as 2.91 µM. In data set [2], the CC50 is more than 50000 nM.

Take `Cc1[nH]nnc1C1(NC(=O)C(=O)N2CC[C@H](C(=O)Nc3cc(F)c(F)c(F)c3)[C@@H]2C)CC(F)(F)C1` [C38]: the EC50 in data set [1] (setting [5]) turned out to be 0.012 µM. Besides, in data set [3], the half-maximal cytotoxic concentration (CC50) at 3 days is more than 50 µM.

With `C[C@H]1[C@@H](C(=O)Nc2ccc(F)c(C#N)c2)CCN1C(=O)C(=O)NC1(c2c[nH]nn2)CC(F)(F)C1` [C6, (2S,3S)—N-(3-Cyano-4-fluorophenyl)-1-[{[3,3-difluoro-1-(1H-1,2,3-triazol-4-yl)cyclobutyl]amino}(oxo)acetyl]-2-methylpyrrolidine-3-carboxamide], the EC50 in data set [1] (Hepatitis B virus, HepG2.117, 72 h) was found to be 0.044 µM. Also, the CC50 at 3 days in data set [3] was more than 50 µM.

As to `O=C(NC1(c2c[nH]nn2)CC(F)(F)C1)C(=O)N1CC[C@H](C(=O)Nc2cc(F)c(F)c(Cl)c2)C1` [C8], the EC50 in data set [1] (setting [5]) stood at 0.045 µM. For the same compound, the CC50 at 3 days in data set [3] was more than 50 µM.

With `C[C@H]1[C@@H](C(=O)Nc2ccc(F)c(Cl)c2)CCN1C(=O)C(=O)NC1(c2c[nH]nn2)CC(F)(F)C1` [C20], the EC50 in data set [1] (setting [5]) was found to be 0.012 µM. For the same compound, the CC50 at 3 days in data set [3] is more than 50 µM.

For `C[C@H]1[C@@H](C(=O)Nc2ccc(Cl)c(Cl)c2)CCN1C(=O)C(=O)NC1(c2c[nH]nn2)CC(F)(F)C1` [C15], the EC50 in data set [1] (setting [5]) was 0.014 µM. In data set [3], this compound displayed a CC50 at 3 days of 35.2 µM.

On to `C[C@H]1[C@@H](C(=O)Nc2cc(F)c(F)c(F)c2)CCN1C(=O)C(=O)N[C@@](C)(CC(F)F)c1c[nH]nn1` (single isomer, unassigned) [C33S*], for which, in data set [1] (setting [5]), the EC50 turned out to be 0.04 µM. Also, the CC50 at 3 days in data set [3] is more than 50 µM.

In the case of `C[C@H]1CN(C(=O)C(=O)NC2(c3c[nH]nn3)CC(F)(F)C2)C[C@H]1C(=O)Nc1cc(F)c(F)c(F)c1` [C10], the EC50 in data set [1] (setting [5]) was 0.578 µM. The same compound showed a CC50 at 3 days in data set [3] of more than 50 µM.

On to `C[C@H]1[C@@H](C(=O)Nc2ccc(F)c(C(F)(F)F)c2)CCN1C(=O)C(=O)N[C@@H](CC(F)(F)F)c1c[nH]nn1` (single isomer, unassigned) [C30S*], for which the EC50 in data set [1] (setting [5]) was 0.06 µM. This compound also gave a CC50 at 3 days in data set [3] of more than 50 µM.

Consider `Cc1c(F)ccc(NC(=O)[C@H]2CCN(C(=O)C(=O)NC3(c4c[nH]nn4)CC(F)(F)C3)[C@H]2C)c1F` [C23], for which the EC50 in data set [1] (setting [5]) came out at 0.016 µM. For the same compound, the CC50 at 3 days in data set [3] was more than 50 µM.

Turning to `C[C@H]1[C@@H](C(=O)Nc2ccc(F)c(Cl)c2F)CCN1C(=O)C(=O)N[C@H](CC(F)(F)F)c1c[nH]nn1` (single isomer, unassigned) [C37R*], in data set [1] (setting [5]), the EC50 is 0.014 µM. Further, the CC50 at 3 days in data set [3] is more than 50 µM.

Turning to `C[C@H]1[C@@H](C(=O)Nc2ccc(F)c(C#N)c2)CCN1C(=O)C(=O)N[C@@H](CC(F)(F)F)c1c[nH]nn1` (single isomer, unassigned) [C28S*], in data set [1] (setting [5]), the EC50 came to 0.07 µM. For the same compound, in data set [3], the CC50 at 3 days was more than 50 µM.

As for `C[C@H]1[C@@H](C(=O)Nc2ccc(F)c(Cl)c2F)CCN1C(=O)C(=O)NC1(c2c[nH]nn2)CC(F)(F)C1` [C17], the concentration giving a half-maximal response (EC50) in data set [1] (setting [5]) was 0.01 µM. The same compound displayed a CC50 at 3 days in data set [3] of more than 50 µM.

Regarding `C[C@H]1[C@@H](C(=O)Nc2ccc(F)c(C#N)c2)CCN1C(=O)C(=O)N[C@H](CC(F)(F)F)c1c[nH]nn1` (single isomer, unassigned) [C28R*], in data set [1] (setting [5]), the EC50 amounted to 0.032 µM. The CC50 at 3 days in data set [3] was more than 50 µM.

In the case of `C[C@H]1[C@@H](C(=O)Nc2cc(F)c(F)c(Cl)c2)CCN1C(=O)C(=O)N[C@H](CC(F)(F)F)c1c[nH]nn1` (single isomer, unassigned) [C32R*], the EC50 in data set [1] (setting [5]) was found to be 0.007 µM. Further, the CC50 at 3 days in data set [3] is more than 50 µM.

Turning to `O=C(NC1(c2c[nH]nn2)CC(F)(F)C1)C(=O)N1CC[C@H](C(=O)Nc2ccnc(Cl)c2)C1` [C11], the EC50 in data set [1] (setting [5]) amounted to 1.5 µM. In addition, in data set [3], the CC50 at 3 days is more than 50 µM.
